Counter-ions that a name gives are not always drawn. Like-named read-outs stand apart in the source and are kept apart here.
Legend:
[1] = Solubility and pH of salts; details: for pH of a 1 percent aqueous solution: 1 percent aqueous solution of the salt; for precipitation on raising pH to 7.0: 1 percent aqueous solution, N/10 sodium hydroxide to pH 7.0
[2] = system: guinea pig bronchioles constricted by carbachol; experiment: Bronchodilator Test Method II, in vitro perfused guinea pig lung
Protocol: In this method bronchodilator activity in vitro was determined by testing the effect of graded doses of the test compounds on guinea pig bronchioles constricted by carbachol, using the technique reported by Sollman and von Oettingen, Proc. Soc, Exp. Biol. Med., 25,692 (1928) as modified by Tainter, Pedden, and James, J. Pharm. Exp. Ther., 51, 371 (1934) and by Luduena, von Euler, Tullar, and Lands, Arch. intern. Pharmacol., III, 392 (1957).

[3] = system: carbachol- or histamine-induced bronchoconstriction; experiment: Bronchodilator Test Method I, anesthetized dog, intravenous activity; type: in vivo; details: Canis lupus familiaris, read-out: Bronchodilatation; for inhibition in vivo at 0.0055 mg/kg: 5.5 mcg/kg i.v.; for inhibition in vivo at 0.0005 mg/kg: 0.5 mcg/kg i.v.; for inhibition in vivo at 0.006 mg/kg: 6.0 mcg/kg i.v.
Outline: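 Pentobarbital-anesthetized (30 mg/kg i.v.), open-chest, artificially ventilated dogs were given i.v. carbachol (4-6 µg/kg) or histamine diphosphate (35-45 µg/kg). Test compound was given i.v. mixed with, after, or 1-10 min before the constrictor.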

heart rate = experiment: Cardiovascular studies: effect on the heart rate in the anesthetized dog; type: in vivo
Protocol: The effect of a rapid intravenous injection on the heart rate the heart rate was conducted in anesthetized dogs under normal respiration. A few open-chest dogs were also tested. Increase in heart rate was measured by using an electrocardiograph attached to the dog. Readings were taken every 0.5-1 minute for the first 10 minutes and every 2-5 minutes thereafter until recovery. In some cases, several doses and more than one compound were tested alternately in the same dog. The blood pressure effect was simultaneously recorded.

[4] = system: carbachol- or histamine-induced bronchoconstriction; experiment: Bronchodilator Test Method I, anesthetized dog, intraduodenal activity; type: in vivo; details: Canis lupus familiaris, read-out: Bronchodilation; for inhibition in vivo at 0.005 mg/kg: 5 mcg/kg (salt) intraduodenal; for inhibition in vivo at 0.04 mg/kg: 40 mcg/kg (salt) intraduodenal; for inhibition in vivo at 0.16 mg/kg: 160 mcg/kg (salt) intraduodenal
Outline: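 Pentobarbital-anesthetized (30 mg/kg i.v.) open-chest dogs of 9-18 kg, artificially ventilated; airway pressure recorded via tracheal cannula transducer. Test solution injected intraduodenally; from 5 min, i.v. carbachol (4-6 μg/kg) or histamine diphosphate (35-45 μg/kg) challenges every 30-60 min gauged degree and duration of bronchodilation.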

[5] = 1 percent solution in dimethyl sulfoxide
[6] = 1 percent solution in glycerol formal

Compound: Cc1ccc(C(=O)Oc2ccc(C(=O)CNC(C)(C)C)cc2OC(=O)c2ccc(C)cc2)cc1 [3,4-bis(p-toluyloxy)phenyl tert-butylaminomethyl ketone hydrochloride]
- solubility ([1]; water): < 1 mg/mL

Compound: CC(C)(C)NCC(=O)c1ccc(OC(=O)C(C)(C)C)c(OC(=O)C(C)(C)C)c1.Cl [3,4-bis(pivalyloxy)phenyl tert-butylaminomethyl ketone hydrochloride]
- solubility ([1]; water): ≥ 10 mg/mL

Compound: CCCC(=O)Oc1ccc(C(O)CNC(C)(C)C)cc1OC(=O)CCC.Cl (stereo not drawn) [Example 1, 3,4-bis(butyryloxy)-alpha-(tert-butylaminomethyl)benzyl alcohol hydrochloride]
- pH of a 1 percent aqueous solution [1]: 6.0
- precipitation on raising pH to 7.0 [1]: a precipitate formed
- solubility ([1]; water): ≥ 200 mg/mL
- ED50 ([2]; carbachol (Doryl) 1:5 million): 0.23 µg (base)
- Duration, Mean ([2]; dose 0.5 mcg (base)): 9 ± 1.0 min

Compound: CC(C)CC(=O)Oc1ccc(C(O)CNC(C)(C)C)cc1OC(=O)CC(C)C.Cl (stereo not drawn) [Example 3, 3,4-bis(isovaleryloxy)-alpha-(tert-butylaminomethyl)-benzyl alcohol hydrochloride]
- pH of a 1 percent aqueous solution [1]: 5.4
- precipitation on raising pH to 7.0 [1]: a precipitate formed
- solubility ([1]; water): ≥ 200 mg/mL
- inhibition in vivo at 0.00055 mg/kg ([3]; 1 min, 0.55 mcg/kg i.v., 1-2 min): 32%
- inhibition in vivo at 0.0011 mg/kg ([3]; 1 min, 1.1 mcg/kg i.v., 1-2 min): 54%
- inhibition in vivo at 0.0022 mg/kg ([3]; 1 min, 2.2 mcg/kg i.v., 1-2 min): 74%
- ED50 ([2]; carbachol (Doryl) 1:5 million): 0.6 µg (base)
- Duration, Mean ([2]; dose 1.2 mcg (base)): 18 ± 4 min

Compound: CCC(C)C(=O)Oc1ccc(C(O)CNC(C)(C)C)cc1OC(=O)C(C)CC.Cl (stereo not drawn) [Example 4, 3,4-bis(2-methylbutanoyloxy)-alpha-(tert-butylaminomethyl)benzyl alcohol hydrochloride]
- solubility ([1]; water): ≥ 50 mg/mL
- inhibition in vivo at 0.0055 mg/kg ([3]; 2 min, 2 min): 48%
- inhibition in vivo at 0.0055 mg/kg ([3]; 0.5 h, 30 min): 5%
- inhibition in vivo at 0.0055 mg/kg ([3]; 1 h, 60 min): 0%
- ED50 ([2]; carbachol (Doryl) 1:5 million): 0.45 µg (base)
- Duration, Mean ([2]; dose 1 mcg (base)): 20 ± 3 min

Compound: CCC(C)CC(=O)Oc1ccc(C(O)CNC(C)(C)C)cc1OC(=O)CC(C)CC.Cl (stereo not drawn) [Example 6, 3,4-bis(3-methylpentanoyloxy)-alpha-(tert-butylaminomethyl)benzyl alcohol hydrochloride]
- solubility ([1]; water): ≥ 50 mg/mL
- ED50 ([2]; carbachol (Doryl) 1:5 million): 1.3 µg (base)
- Duration, Mean ([2]; dose 3.2 mcg (base)): 43 ± 3.7 min

Compound: CCCC(C)(C)C(=O)Oc1ccc(C(O)CNC(C)(C)C)cc1OC(=O)C(C)(C)CCC (stereo not drawn) [Example 8, 3,4-bis(2,2-dimethylpentanoyloxy)-alpha-(tert-butylaminomethyl)benzyl alcohol]
- solubility ([1]; water): ≥ 50 mg/mL

Compound: CC(C)(C)NCC(O)c1ccc(OC(=O)c2ccccc2)c(OC(=O)c2ccccc2)c1.Cl (stereo not drawn) [Example 29, 3,4-bis(benzoyloxy)-alpha-(tert-butylaminomethyl)benzyl alcohol hydrochloride]
- precipitation on dilution with three volumes of water [1, 5]: no precipitate formed
- precipitation on dilution with three volumes of water [1, 6]: no precipitate formed
- solubility ([1]; dimethyl sulfoxide, organic solvent or mixture): ≥ 10 mg/mL
- solubility ([1]; glycerol formal, organic solvent or mixture): ≥ 10 mg/mL
- ED50 ([2]; carbachol (Doryl) 1:5 million): 1.1 µg (base)
- Duration, Mean ([2]; dose 3.2 mcg (base)): 34 ± 6.4 min

Compound: COc1ccc(C(=O)Oc2ccc(C(O)CNC(C)(C)C)cc2OC(=O)c2ccc(OC)cc2)cc1.Cl (stereo not drawn) [Example 33, 3,4-bis(p-anisoyloxy)-alpha-(tert-butylaminomethyl)benzyl alcohol hydrochloride]
- precipitation on dilution with three volumes of water [1, 5]: no precipitate formed
- precipitation on dilution with three volumes of water [1, 6]: no precipitate formed
- solubility ([1]; polyethyleneglycol 200, organic solvent or mixture): < 10 mg/mL
- ED50 ([2]; carbachol (Doryl) 1:5 million): 6.9 µg (base)
- Duration, Mean ([2]; dose 10 mcg (base)): 32 ± 5 min

Compound: CC(C)CC(=O)Oc1ccc(C(O)CNC(C)(C)C)cc1O (stereo not drawn) [Example 58, 3-hydroxy-4-(isovaleryloxy)-alpha-(tert-butylaminomethyl)benzyl alcohol methanesulfonate]
- solubility ([1]; water): ≥ 50 mg/mL
- ED50 ([2]; carbachol (Doryl) 1:5 million): 1.4 µg (base)
- Duration, Mean ([2]; dose 2.4 mcg (base)): 12 ± 2.5 min

Compound: Cc1ccc(C(=O)Oc2ccc(C(O)CNC(C)(C)C)cc2O)cc1 (stereo not drawn) [Example 69, 3-hydroxy-4-(p-toluyloxy)-alpha-(tert-butylaminomethyl)benzyl alcohol methanesulfonate]
- solubility ([1]; water): ≥ 50 mg/mL

Compound: CC(C)CC(=O)Oc1cc(C(O)CNC(C)(C)C)ccc1OC(=O)C(C)(C)C.Cl (stereo not drawn) [Example 71, 3-(isovaleryloxy)-4-(pivalyloxy)-alpha-(tert-butylaminomethyl)benzylalcohol hydrochloride]
- solubility ([1]; water): ≥ 50 mg/mL
- ED50 ([2]; carbachol (Doryl) 1:5 million): 0.63 µg (base)
- Duration, Mean ([2]; dose 2 mcg (base)): 26 min

Compound: COc1ccc(C(=O)Oc2cc(C(O)CNC(C)(C)C)ccc2OC(C)=O)cc1 (stereo not drawn) [Example 149, 3-(p-anisoyloxy)-4-acetoxy-alpha-(tert-butylaminomethyl)benzyl alcohol methanesulfonate]
- Mean Maximal Increase in the Heart Rate (heart rate; 0.8 mcg/kg (salt) i.v.): 19 Beats/Minute
- Mean Maximal Increase in the Heart Rate (heart rate; 6.4 mcg/kg (salt) i.v.): 47 Beats/Minute
- Mean Maximal Increase in the Heart Rate (heart rate; 32 mcg/kg (salt) i.v.): 70 Beats/Minute
- inhibition in vivo at 0.0005 mg/kg ([3]; 5 min, 5 min): 54%
- inhibition in vivo at 0.006 mg/kg ([3]; 5 min, 5 min): 100%
- inhibition in vivo at 0.0005 mg/kg ([3]; 0.5 h, 30 min): 19%
- inhibition in vivo at 0.006 mg/kg ([3]; 0.5 h, 30 min): 32%
- inhibition in vivo at 0.0005 mg/kg ([3]; 1 h, 60 min): 19%
- inhibition in vivo at 0.006 mg/kg ([3]; 1 h, 60 min): 24%
- inhibition in vivo at 0.005 mg/kg ([4]; 5 min, 5 min): 0%
- inhibition in vivo at 0.04 mg/kg ([4]; 5 min, 5 min): 78%
- inhibition in vivo at 0.16 mg/kg ([4]; 5 min, 5 min): 72%
- inhibition in vivo at 0.005 mg/kg ([4]; 0.5 h, 30 min): 7%
- inhibition in vivo at 0.04 mg/kg ([4]; 0.5 h, 30 min): 52%
- inhibition in vivo at 0.16 mg/kg ([4]; 0.5 h, 30 min): 61%
- inhibition in vivo at 0.005 mg/kg ([4]; 1 h, 60 min): 13%
- inhibition in vivo at 0.04 mg/kg ([4]; 1 h, 60 min): 44%
- inhibition in vivo at 0.16 mg/kg ([4]; 1 h, 60 min): 56%
- inhibition in vivo at 0.005 mg/kg ([4]; 2 h, 120 min): 5%
- inhibition in vivo at 0.04 mg/kg ([4]; 2 h, 120 min): 31%
- inhibition in vivo at 0.16 mg/kg ([4]; 2 h, 120 min): 11%
- inhibition in vivo at 0.005 mg/kg ([4]; 3 h, 180 min): 9%
- inhibition in vivo at 0.16 mg/kg ([4]; 3 h, 180 min): 22%
- inhibition in vivo at 0.005 mg/kg ([4]; 4 h, 240 min): 0%
- inhibition in vivo at 0.04 mg/kg ([4]; 4 h, 240 min): 35%
- inhibition in vivo at 0.16 mg/kg ([4]; 4 h, 240 min): 23%
- inhibition in vivo at 0.04 mg/kg ([4]; 5 h, 300 min): 35%
- ED50 ([2]; Doryl conc. 1:10 million): 0.91 µg (base)
- Duration, Mean ([2]; dose 2 mcg (base), Doryl conc. 1:10 million): 13.2 ± 1.9 min

— patent USRE30241E, “Esters of 3-(hydroxy or hydroxymethyl)-4-hydroxyphenyl aminomethyl ketones” (Sterling Drug Inc., priority 1970, dated 1980)
